Measured values reported in ChEMBL document CHEMBL1671744 (Antimicrob Agents Chemother, 2010).
In brackets after ≈: the same amount, converted by molar mass. Where a SMILES comes first, the peptide text is derived from it. [ ]: non-standard residue; d: D form. The star is where a group is joined. OBn = c1ccc(CO*)cc1

Columns and labels:
Escherichia coli = experiment: Antimicrobial activity against Escherichia coli; assay type: functional
[1] = erythrocyte
Staphylococcus aureus = experiment: Antimicrobial activity against Staphylococcus aureus; assay type: functional

SMILES | MIC (Escherichia coli) [µM] | MHC [1] | MIC (Staphylococcus aureus) [µM]
CC[C@H](C)[C@H](NC(=O)[C@H](C)NC(=O)[C@H](CCCCN)NC(=O)[C@H](CC(C)C)NC(=O)[C@H](C)NC(=O)[C@H](CCCCN)NC(=O)[C@H](Cc1cnc[nH]1)NC(=O)[C@H](CC(C)C)NC(=O)[C@@H](NC(=O)[C@H](CCCCN)NC(=O)[C@H](CCCCN)NC(=O)[C@H](CCCCN)NC(=O)[C@H](C)NC(=O)[C@H](CO)NC(=O)[C@H](CCCCN)NC(=O)[C@H](Cc1ccccc1)NC(=O)[C@@H](NC(=O)[C@H](CCCCN)NC(=O)[C@H](CC(C)C)NC(=O)[C@H](Cc1ccccc1)NC(=O)[C@H](CO)NC(=O)[C@H](CCCCN)NC(=O)[C@H](Cc1c[nH]c2ccccc12)NC(=O)[C@H](CCCCN)NC(C)=O)[C@@H](C)O)C(C)C)C(=O)N[C@@H](CO)C(=O)N[C@@H](CO)C(N)=O (Ac-KWKSFLKTFKSAKKKVLHKALKAISS-NH2) | 2.8 (≈ 8.53 µg/mL) | < 2.8 µM | 
CC[C@H](C)[C@H](NC(=O)[C@H](CCCCN)NC(=O)[C@H](CC(C)C)NC(=O)[C@H](C)NC(=O)[C@@H](NC(=O)[C@H](Cc1cnc[nH]1)NC(=O)[C@H](CC(C)C)NC(=O)[C@@H](NC(=O)[C@@H](NC(=O)[C@H](CCCCN)NC(=O)[C@@H](NC(=O)[C@H](C)NC(=O)[C@H](CO)NC(=O)[C@H](CCCCN)NC(=O)[C@H](Cc1ccccc1)NC(=O)[C@@H](NC(=O)[C@H](CCCCN)NC(=O)[C@H](CC(C)C)NC(=O)[C@H](Cc1ccccc1)NC(=O)[C@H](CO)NC(=O)[C@H](CCCCN)NC(=O)[C@H](Cc1c[nH]c2ccccc12)NC(=O)[C@H](CCCCN)NC(C)=O)[C@@H](C)O)C(C)C)[C@@H](C)O)C(C)C)[C@@H](C)O)C(=O)N[C@@H](CO)C(=O)N[C@@H](CO)C(N)=O (Ac-KWKSFLKTFKSAVKTVLHTALKISS-NH2) | 0.89 (≈ 2.57 µg/mL) | > 88.6 µM | 
CC[C@H](C)[C@H](NC(=O)[C@H](C)NC(=O)[C@H](CCCCN)NC(=O)[C@H](CC(C)C)NC(=O)[C@H](C)NC(=O)[C@@H](NC(=O)[C@H](Cc1c[nH]cn1)NC(=O)[C@H](CC(C)C)NC(=O)[C@@H](NC(=O)[C@@H](NC(=O)[C@H](CCCCN)NC(=O)[C@H](NC(=O)[C@H](C)NC(=O)[C@H](CO)NC(=O)[C@H](CCCCN)NC(=O)[C@H](Cc1ccccc1)NC(=O)[C@@H](NC(=O)[C@H](CCCCN)NC(=O)[C@H](CC(C)C)NC(=O)[C@H](Cc1ccccc1)NC(=O)[C@H](CO)NC(=O)[C@H](CCCCN)NC(=O)[C@H](Cc1c[nH]c2ccccc12)NC(=O)[C@H](CCCCN)NC(C)=O)[C@@H](C)O)C(C)C)[C@@H](C)O)C(C)C)[C@@H](C)O)C(=O)N[C@@H](CO)C(=O)N[C@@H](CO)C(N)=O (Ac-KWKSFLKTFKSA[dV]KTVLHTALKAISS-NH2) |  | 22.2 µM | 
N=C(N)NCCC[C@H](NC(=O)[C@@H](N)Cc1c[nH]c2ccccc12)C(=O)N[C@@H](Cc1c[nH]c2ccccc12)C(N)=O (H-Trp-Arg-Trp-NH2) |  | > 500 µg/mL | 
NC(=O)[C@H](Cc1c[nH]c2ccccc12)NC(=O)[C@H](CCCN=C(N)N)NC(=O)[C@@H](N)Cc1c[nH]c2ccccc12 (H-Trp-Arg-Trp-NH2) | > 436 |  | 218 (≈ 119 µg/mL)
N=C(N)NCCC[C@H](NC(=O)[C@@H](N)Cc1c[nH]c2ccccc12)C(=O)N[C@@H](Cc1c[nH]c2ccccc12)C(=O)OCc1ccccc1 (H-Trp-Arg-Trp-OBn) |  | > 500 µg/mL | 
CC[C@H](C)[C@H](NC(=O)CN)C(=O)NCC(=O)N[C@@H](C)C(=O)N[C@H](C(=O)N[C@@H](CC(C)C)C(=O)N[C@@H](CCCCN)C(=O)N[C@H](C(=O)N[C@@H](CC(C)C)C(=O)N[C@H](C(=O)N[C@H](C(=O)NCC(=O)N[C@@H](CC(C)C)C(=O)N1CCC[C@H]1C(=O)N[C@@H](C)C(=O)N[C@@H](CC(C)C)C(=O)N[C@H](C(=O)N[C@@H](CO)C(=O)N[C@@H](Cc1c[nH]c2ccccc12)C(=O)N[C@H](C(=O)N[C@@H](CCCCN)C(=O)N[C@@H](CCCNC(=N)N)C(=O)N[C@@H](CCCCN)C(=O)N[C@@H](CCCNC(=N)N)C(=O)N[C@@H](CCC(N)=O)C(=O)N[C@@H](CCC(N)=O)C(N)=O)[C@@H](C)CC)[C@@H](C)CC)[C@@H](C)O)[C@@H](C)O)C(C)C)C(C)C [MELITTIN] |  | 0.78 µM | 
